In PubChem BioAssay AID2060505 (Molecular Pharmacology Branch, DTP, NCI, 2025):

Tested on: 633275-114-R-J1-PDC complex spheroids, viability
Assay: Anticancer human tumor 633275-114-R-J1-PDC patient-derived endometrial adenocarcinoma cell line growth inhibition [GQUAD]
Settings: for IC50: curve of first compound; for viability, T/C: stronger effect = lower value
In short: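 Multi-cell-type spheroids of tumor cells with HUVEC and mesenchymal stem cells, treated with drug combinations. Concentrations descend in half-log steps from near clinical Cmax, or from 10 microM where Cmax is unknown; viability read-out.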

[1] = second compound 0.0316 µM, first compound 0.0316 µM
[2] = second compound 0.0316 µM, first compound 0.1 µM
[3] = second compound 0.0316 µM, first compound 0.316 µM
[4] = second compound 0.0316 µM, first compound 1 µM
[5] = second compound 0.0316 µM, first compound 3.16 µM
[6] = second compound 0.0316 µM, first compound 10 µM
[7] = second compound 0.1 µM, first compound 0.0316 µM
[8] = second compound 0.1 µM, first compound 0.1 µM
[9] = second compound 0.1 µM, first compound 0.316 µM
[10] = second compound 0.1 µM, first compound 1 µM
[11] = second compound 0.1 µM, first compound 3.16 µM
[12] = second compound 0.1 µM, first compound 10 µM
[13] = second compound 0.316 µM, first compound 0.0316 µM
[14] = second compound 0.316 µM, first compound 0.1 µM
[15] = second compound 0.316 µM, first compound 0.316 µM
[16] = second compound 0.316 µM, first compound 1 µM
[17] = second compound 0.316 µM, first compound 3.16 µM
[18] = second compound 0.316 µM, first compound 10 µM
[19] = second compound 1 µM, first compound 0.0316 µM
[20] = second compound 1 µM, first compound 0.1 µM
[21] = second compound 1 µM, first compound 0.316 µM
[22] = second compound 1 µM, first compound 1 µM
[23] = second compound 1 µM, first compound 3.16 µM
[24] = second compound 1 µM, first compound 10 µM
[25] = second compound 3.16 µM, first compound 0.0316 µM
[26] = second compound 3.16 µM, first compound 0.1 µM
[27] = second compound 3.16 µM, first compound 0.316 µM
[28] = second compound 3.16 µM, first compound 1 µM
[29] = second compound 3.16 µM, first compound 3.16 µM
[30] = second compound 3.16 µM, first compound 10 µM
[31] = second compound 10 µM, first compound 0.0316 µM
[32] = second compound 10 µM, first compound 0.1 µM
[33] = second compound 10 µM, first compound 0.316 µM
[34] = second compound 10 µM, first compound 1 µM
[35] = second compound 10 µM, first compound 3.16 µM
[36] = second compound 10 µM, first compound 10 µM
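Further: spheroids exposed to the agents for seven days.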
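Wherever viability, T/C is given: percent of DMSO vehicle control viability which is 100%.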

`COc1cc(C2c3cc4c(cc3C(OC3OC5COC(C)OC5C(O)C3O)C3COC(=O)C23)OCO4)cc(OC)c1O` (stereo unspecified) + CN(C)c1ccc(Nc2c3ccc(NC(=O)CCN4CCCC4)cc3nc3cc(NC(=O)CCN4CCCC4)ccc23)cc1 showed an IC50 (second compound 0.0316 µM) of 295 nM, an IC50 (second compound 0.1 µM) of 284 nM and an IC50 (second compound 0.316 µM) of 296 nM. It also gave an IC50 (second compound 1 µM) of 334 nM, an IC50 (second compound 3.16 µM) of 171 nM and an IC50 (second compound 10 µM) of under 31.6 nM. For the same compound, the viability, T/C [1] was 81.6%, the viability, T/C [2] was 64.5% and the viability, T/C [3] was 47.3%. The viability, T/C [4] was 40.9%, the viability, T/C [5] was 33.7% and the viability, T/C [6] was 30.3%. It also gave a viability, T/C [7] of 80.2%, a viability, T/C [8] of 64.8% and a viability, T/C [9] of 44.7%. It also gave a viability, T/C [10] of 41.4%, a viability, T/C [11] of 32.6% and a viability, T/C [12] of 26.9%. For the same compound, the viability, T/C [13] was 84.3%, the viability, T/C [14] was 69.7% and the viability, T/C [15] was 48.4%. It also gave a viability, T/C [16] of 36.8%, a viability, T/C [17] of 38.4% and a viability, T/C [18] of 29.8%. It also gave a viability, T/C [19] of 75.4%, a viability, T/C [20] of 59.5% and a viability, T/C [21] of 52.1%. For the same compound, the viability, T/C [22] was 38.7%, the viability, T/C [23] was 36.7% and the viability, T/C [24] was 26.7%. For the same compound, the viability, T/C [25] was 71.7%, the viability, T/C [26] was 53.7% and the viability, T/C [27] was 43.6%. For the same compound, the viability, T/C [28] was 36.4%, the viability, T/C [29] was 37.5% and the viability, T/C [30] was 26%. It also gave a viability, T/C [31] of 25.5%, a viability, T/C [32] of 19.9% and a viability, T/C [33] of 18.5%. For the same compound, the viability, T/C [34] was 17.5%, the viability, T/C [35] was 16.3% and the viability, T/C [36] was 10.7%.

`Nc1ccn(C2OC(CO)C(O)C2(F)F)c(=O)n1` (stereo unspecified) + CN(C)c1ccc(Nc2c3ccc(NC(=O)CCN4CCCC4)cc3nc3cc(NC(=O)CCN4CCCC4)ccc23)cc1 showed an IC50 (second compound 0.0316 µM) of under 31.6 nM, an IC50 (second compound 0.1 µM) of under 31.6 nM and an IC50 (second compound 0.316 µM) of under 31.6 nM. It also gave an IC50 (second compound 1 µM) of under 31.6 nM, an IC50 (second compound 3.16 µM) of under 31.6 nM and an IC50 (second compound 10 µM) of under 31.6 nM. For the same compound, the viability, T/C [1] was 27.4%, the viability, T/C [2] was 20.1% and the viability, T/C [3] was 23.8%. For the same compound, the viability, T/C [4] was 23.6%, the viability, T/C [5] was 20.7% and the viability, T/C [6] was 20.5%. It also gave a viability, T/C [7] of 27.1%, a viability, T/C [8] of 20.7% and a viability, T/C [9] of 24%. The viability, T/C [10] was 22.4%, the viability, T/C [11] was 21.5% and the viability, T/C [12] was 19.3%. It also gave a viability, T/C [13] of 29.6%, a viability, T/C [14] of 21% and a viability, T/C [15] of 25.6%. For the same compound, the viability, T/C [16] was 22.9%, the viability, T/C [17] was 19.7% and the viability, T/C [18] was 17.7%. The viability, T/C [19] was 27.7%, the viability, T/C [20] was 20.1% and the viability, T/C [21] was 22%. The viability, T/C [22] was 21.1%, the viability, T/C [23] was 22.4% and the viability, T/C [24] was 19.6%. For the same compound, the viability, T/C [25] was 24.6%, the viability, T/C [26] was 20.6% and the viability, T/C [27] was 19.3%. It also gave a viability, T/C [28] of 18.6%, a viability, T/C [29] of 20.6% and a viability, T/C [30] of 18.6%. The viability, T/C [31] was 12.9%, the viability, T/C [32] was 11.6% and the viability, T/C [33] was 11.7%. It also gave a viability, T/C [34] of 11.7%, a viability, T/C [35] of 11% and a viability, T/C [36] of 9%.

Compound `O=c1[nH]cc(F)c(=O)[nH]1` + CN(C)c1ccc(Nc2c3ccc(NC(=O)CCN4CCCC4)cc3nc3cc(NC(=O)CCN4CCCC4)ccc23)cc1 has an IC50 (second compound 0.0316 µM) of over 10000 nM, an IC50 (second compound 0.1 µM) of over 10000 nM and an IC50 (second compound 0.316 µM) of over 10000 nM. It also gave an IC50 (second compound 1 µM) of over 10000 nM, an IC50 (second compound 3.16 µM) of over 10000 nM and an IC50 (second compound 10 µM) of under 31.6 nM. It also gave a viability, T/C [1] of 112%, a viability, T/C [2] of 96% and a viability, T/C [3] of 96.9%. For the same compound, the viability, T/C [4] was 88.1%, the viability, T/C [5] was 88.5% and the viability, T/C [6] was 66%. The viability, T/C [7] was 97.6%, the viability, T/C [8] was 98.8% and the viability, T/C [9] was 91.4%. For the same compound, the viability, T/C [10] was 96.6%, the viability, T/C [11] was 88.4% and the viability, T/C [12] was 76.5%. The viability, T/C [13] was 86.9%, the viability, T/C [14] was 90.1% and the viability, T/C [15] was 97.3%. For the same compound, the viability, T/C [16] was 100%, the viability, T/C [17] was 86.2% and the viability, T/C [18] was 66.2%. It also gave a viability, T/C [19] of 79.8%, a viability, T/C [20] of 91.8% and a viability, T/C [21] of 98.9%. It also gave a viability, T/C [22] of 99%, a viability, T/C [23] of 84.9% and a viability, T/C [24] of 64.3%. For the same compound, the viability, T/C [25] was 83.2%, the viability, T/C [26] was 85.9% and the viability, T/C [27] was 85.2%. The viability, T/C [28] was 74%, the viability, T/C [29] was 77.9% and the viability, T/C [30] was 56.8%. The viability, T/C [31] was 36%, the viability, T/C [32] was 38.3% and the viability, T/C [33] was 30.2%. For the same compound, the viability, T/C [34] was 33.1%, the viability, T/C [35] was 32.2% and the viability, T/C [36] was 26.4%.
